According to ChEMBL document CHEMBL1158659, “The alkaloids of Delphinium cashmirianum” (J Nat Prod, 1979):

Tests used:
Format in all cases: functional
[1] = tested on: Oryctolagus cuniculus; test: Cardiovascular activity in Albino rabbit assessed as change in heart rate tested at basal heart rate of 180 beats/min at 0.25 mg/kg, iv by physiograph 4
[2] = tested on: Oryctolagus cuniculus; test: Cardiovascular activity in Albino rabbit assessed as sinusoidal heart rate tested at basal heart rate of 180 beats/min at 0.05 mg/kg, iv by physiograph 4
[3] = tested on: Oryctolagus cuniculus; test: Cardiovascular activity in Albino rabbit assessed as change in heart rate tested at basal heart rate of 180 beats/min at 0.10 mg/kg, iv by physiograph 4; conditions: dose 0.1 mg/kg
[4] = tested on: Oryctolagus cuniculus; test: Cardiovascular activity in Albino rabbit assessed as change in heart rate tested at basal heart rate of 178 beats/min at 0.50 mg/kg, iv by physiograph 4; conditions: dose 0.5 mg/kg
[5] = tested on: Oryctolagus cuniculus; test: Cardiovascular activity in Albino rabbit assessed as change in heart rate tested at basal heart rate of 180 beats/min at 1.0 mg/kg, iv by physiograph 4
[6] = tested on: Oryctolagus cuniculus; test: Cardiovascular activity in Albino rabbit assessed as change in heart rate tested at basal heart rate of 178 beats/min at 1.0 mg/kg, iv by physiograph 4
[7] = tested on: Oryctolagus cuniculus; test: Cardiovascular activity in Albino rabbit assessed as change in heart rate tested at basal heart rate of 180 beats/min at 0.50 mg/kg, iv by physiograph 4; conditions: dose 0.5 mg/kg
[8] = tested on: Oryctolagus cuniculus; test: Cardiovascular activity in Albino rabbit assessed as change in heart rate tested at basal heart rate of 185 beats/min at 0.25 mg/kg, iv by physiograph 4
[9] = tested on: Oryctolagus cuniculus; test: Cardiovascular activity in Albino rabbit assessed as change in heart rate tested at basal heart rate of 185 beats/min at 0.10 mg/kg, iv by physiograph 4; conditions: dose 0.1 mg/kg
[10] = tested on: Oryctolagus cuniculus; test: Cardiovascular activity in Albino rabbit assessed as change in heart rate tested at basal heart rate of 185 beats/min at 0.50 mg/kg, iv by physiograph 4; conditions: dose 0.5 mg/kg
[11] = tested on: Oryctolagus cuniculus; test: Cardiovascular activity in Albino rabbit assessed as change in heart rate tested at basal heart rate of 185 beats/min at 1.0 mg/kg, iv by physiograph 4
[12] = tested on: Oryctolagus cuniculus; test: Cardiovascular activity in Albino rabbit assessed as change in heart rate tested at basal heart rate of 185 beats/min at 5.0 mg/kg, iv by physiograph 4
[13] = tested on: Oryctolagus cuniculus; test: Cardiovascular activity in Albino rabbit assessed as change in heart rate tested at basal heart rate of 195 beats/min at 0.50 mg/kg, iv by physiograph 4; conditions: dose 0.5 mg/kg
[14] = tested on: Oryctolagus cuniculus; test: Cardiovascular activity in Albino rabbit assessed as change in heart rate tested at basal heart rate of 195 beats/min at 0.25 mg/kg, iv by physiograph 4
[15] = tested on: Oryctolagus cuniculus; test: Cardiovascular activity in Albino rabbit assessed as change in heart rate tested at basal heart rate of 195 beats/min at 1.0 mg/kg, iv by physiograph 4
[16] = tested on: Oryctolagus cuniculus; test: Cardiovascular activity in Albino rabbit assessed as change in heart rate tested at basal heart rate of 195 beats/min at 0.10 mg/kg, iv by physiograph 4; conditions: dose 0.1 mg/kg
[17] = tested on: Oryctolagus cuniculus; test: Cardiovascular activity in Albino rabbit assessed as change in heart rate tested at basal heart rate of 200 beats/min at 0.50 mg/kg, iv by physiograph 4; conditions: dose 0.5 mg/kg
[18] = tested on: Oryctolagus cuniculus; test: Cardiovascular activity in Albino rabbit assessed as sinusoidal heart rate tested at basal heart rate of 185 beats/min at 0.05 mg/kg, iv by physiograph 4
[19] = tested on: Oryctolagus cuniculus; test: Cardiovascular activity in Albino rabbit assessed as sinusoidal heart rate tested at basal heart rate of 200 beats/min at 0.05 mg/kg, iv by physiograph 4
[20] = tested on: Oryctolagus cuniculus; test: Cardiovascular activity in Albino rabbit assessed as change in heart rate tested at basal heart rate of 200 beats/min at 0.10 mg/kg, iv by physiograph 4; conditions: dose 0.1 mg/kg
[21] = tested on: Oryctolagus cuniculus; test: Cardiovascular activity in Albino rabbit assessed as change in heart rate tested at basal heart rate of 200 beats/min at 0.25 mg/kg, iv by physiograph 4
[22] = tested on: Oryctolagus cuniculus; test: Cardiovascular activity in Albino rabbit assessed as change in heart rate tested at basal heart rate of 200 beats/min at 1.0 mg/kg, iv by physiograph 4

Row | Compound | Activity [1] [bpm] | Activity [3] [bpm] | Activity [7] [bpm] | Activity [8] [bpm] | Activity [9] [bpm] | Activity [10] [bpm] | Activity [11] [bpm] | Activity [12] [bpm] | Activity [17] [bpm] | Activity [20] [bpm] | Activity [21] [bpm] | also measured
1 | CCN1C[C@]2(COC(=O)c3ccccc3NC(=O)CCC(=O)OC)CC[C@H](OC)[C@@]34[C@@H]5C[C@H]6[C@H](OC)[C@@H]5[C@](O)(C[C@@H]6OC)[C@](O)([C@@H](OC)[C@H]23)[C@@H]14 [CASHMIRADELPHINE] | -5 | 5 | -5 |  |  |  |  |  |  |  |  | Activity [2]: -5 bpm; Activity [4]: -8 bpm; Activity [5]: -20 bpm; Activity [6]: -10 bpm
2 | CCN1C[C@]2(O)CC[C@H](OC)[C@@]34[C@@H]2C[C@H]([C@@H]13)[C@@]1(O)C[C@H](OC)[C@H]2C[C@@H]4[C@]1(O)[C@H]2OC [LAPPACONINE] |  |  |  | 0 | -5 | 0 | 0 | 0 |  |  |  | 
3 | CCN1C[C@]2(COC(=O)c3ccccc3N3C(=O)CCC3=O)CC[C@H](OC)[C@]34C1[C@](O)([C@@H](OC)[C@H]23)[C@@]1(O)C[C@H](OC)[C@H]2C[C@@H]4[C@@H]1[C@H]2OC [LYCACONITINE] | 0 | -10 | -10 |  |  |  |  |  |  |  |  | Activity [13]: 0 bpm; Activity [14]: 5 bpm; Activity [15]: -5 bpm; Activity [16]: 3 bpm
4 | CCN1C[C@]2(C=O)CC[C@H](OC)[C@@]34[C@@H]5C[C@@H]6[C@@H](OC)C[C@@](O)(C5[C@H]6OC)[C@](O)([C@@H](OC)[C@H]23)[C@@H]14 [LYCOCTONAL] |  |  |  | 0 | -5 | 0 | 0 | -10 | 0 | 0 | 0 | Activity [18]: 0 bpm; Activity [19]: -3 bpm
5 | CCN1C[C@]2(CO)CC[C@H](OC)[C@@]34[C@@H]5C[C@H]6[C@H](OC)[C@@H]5[C@](O)(C[C@@H]6OC)[C@](O)([C@@H](OC)[C@H]23)[C@@H]14 [LYCOCTONINE] |  |  |  |  | -25 | 0 |  |  | 0 | 5 | 5 | Activity [22]: 0 bpm
